Reference: PMC8041284, “Tunable Methacrylamides for Covalent Ligand Directed Release Chemistry” (Journal of the American Chemical Society, 2021)
Where two headings read alike, the source gives them in different places.

Molecular target: BTK (Homo sapiens, UniProt Q06187)
Assay: biochemical
[1] = read-out: BTK inhibition (%), 0.75 uM BTK, […] probe 3l, 15 min preincubation

BTK, sequence (Q06187 402-655 limits assumed): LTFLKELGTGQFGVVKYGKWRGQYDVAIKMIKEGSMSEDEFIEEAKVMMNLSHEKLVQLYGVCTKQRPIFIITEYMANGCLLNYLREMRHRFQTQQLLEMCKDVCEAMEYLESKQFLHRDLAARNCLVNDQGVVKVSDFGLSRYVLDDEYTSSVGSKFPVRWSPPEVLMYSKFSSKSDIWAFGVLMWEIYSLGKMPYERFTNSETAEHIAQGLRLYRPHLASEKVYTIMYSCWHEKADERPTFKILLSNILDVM

| Structure (SMILES) | inhibition at 10 µM [1] | inhibition at 10 µM (read-out: BTK inhibition (%)) |
| --- | --- | --- |
| CCc1c2c(nc3ccc(OC(=O)N4CCC(N5CCCCC5)CC4)cc13)-c1cc3c(c(=O)n1C2)COC(=O)[C@]3(O)CC [PCM-0086493] | 6.9% |  |
| C[C@@](Cc1ccc(O)c(O)c1)(NN)C(=O)O [PCM-0065259] | -14.8% |  |
| CCCCCCCCCCCCCCCCCCCCCCCCCCCCO [PCM-0215950] | -11.1% |  |
| CCC[S+]([O-])c1ccc2nc(NC(=O)OC)[nH]c2c1 (stereo not drawn) [PCM-0095157] | 20.2% |  |
| Cc1ccnc(NS(=O)(=O)c2ccc(N)cc2)n1 [PCM-0086511] | 1.6% |  |
| COc1ccc(-c2cc(=O)c3c(O)cc(O[C@@H]4O[C@H](CO[C@@H]5O[C@@H](C)[C@H](O)[C@@H](O)[C@H]5O)[C@@H](O)[C@H](O)[C@H]4O)cc3o2)cc1 [PCM-0216526] | 14.7% |  |
| O=S(=O)(NC1CCCCC1)c1ccc2c(c1)C(=NO)c1cc(S(=O)(=O)NC3CCCCC3)ccc1-2 [PCM-0215862] | 1.5% |  |
| CC(=O)O[C@H]1CC[C@H]2[C@@H]3CCc4cc(O)ccc4[C@H]3CC[C@]12C [PCM-0216021] | 3.1% |  |
| O=c1cc(-c2ccc(O)c(O)c2)oc2cc(O)cc(O)c12 [PCM-0086559] | 84.8% |  |
| COC(=O)CC[C@@H](C)[C@H]1CC[C@H]2[C@@H]3[C@H](O)C[C@@H]4C[C@H](O)CC[C@]4(C)[C@H]3C[C@H](O)[C@]12C [PCM-0215088] | -4.7% |  |
| OCC1(O)COc2cc(O)ccc2-c2cc(O)c(O)cc2C1 (stereo not drawn) [PCM-0216494] | 39.4% |  |
| CN1CCN(c2ccc(OC(F)(F)F)c(Nc3ncc4c(n3)-c3c(c(C(N)=O)nn3CCO)CC4)c2)CC1 [PCM-0215357] | -26.9% |  |
| CCCNC[C@]1(O)[C@H](C)O[C@@H](O[C@H]2[C@H](C)[C@@H](O[C@@H]3O[C@H](C)C[C@H](N(C)C)[C@H]3O)[C@](C)(O)C[C@@H](C)CN[C@H](C)[C@@H](O)[C@](C)(O)[C@@H](CC)OC(=O)[C@@H]2C)C[C@@]1(C)OC [PCM-0214927] | -26.5% |  |
| CCCCS(=O)(=O)N[C@@H](Cc1ccc(OCCCCC2CCNCC2)cc1)C(=O)O [PCM-0215839] | -1.5% |  |
| O=C(O)c1ccc(-c2ccc(/C=C3\SC(=S)N(Cc4ccccc4)C3=O)o2)cc1 [PCM-0215715] | 11.6% |  |
| N#CNC(=NCCCCCCOc1ccc(Cl)cc1)Nc1ccncc1 [PCM-0215563] | 18.5% |  |
| O=C(O)c1cccc(-c2noc(-c3ccccc3F)n2)c1 [PCM-0095566] | -10% |  |
| O=C(Nc1cnn2ccc(N3CCC[C@@H]3c3cc(F)ccc3F)nc12)N1CC[C@H](O)C1 [PCM-0215701] | -9% |  |
| O=c1ccn([C@@H]2O[C@H](CO)[C@@H](O)[C@@H]2O)c(=O)[nH]1 [PCM-0215072] | 5.4% |  |
| C=C(C)[C@H]1CC=C(C)CC1 [PCM-0216628] | 5.4% |  |
| Cc1noc(NS(=O)(=O)c2ccc(N)cc2)c1C [PCM-0085967] | 10.9% |  |
| CN1CCN(CCOc2cc(OC3CCOCC3)c3c(Nc4c(Cl)ccc5c4OCO5)ncnc3c2)CC1 [PCM-0094889] | 59.3% |  |
| C/C(=C\CNc1ncnc2c1ncn2[C@@H]1O[C@H](CO)[C@@H](O)[C@H]1O)CO [PCM-0216644] | 0.8% |  |
| CCC(=O)NC[C@@H]1C[C@H]1c1cccc2c1CCO2 [PCM-0216634] | 3.9% |  |

| Structure (SMILES) | inhibition at 10 µM [1] | inhibition at 10 µM (read-out: BTK inhibition (%)) |
| --- | --- | --- |
| O=C1C(Cl)=C(N2CCOCC2)C(=O)N1c1ccc(Cl)c(Cl)c1 [PCM-0215236] | -0.8% |  |
| CC1=CC(=O)CC(C)(C)C1=O [PCM-0215085] | 7.8% |  |
| CCCCCOc1ccccc1/C(=C\SC)n1ccnc1 [PCM-0215110] | -22.6% |  |
| Cn1cnc(=N)c2[nH]cnc21 [PCM-0095527] | -4.8% |  |
| CCCCCCCCCCCC(=O)O [PCM-0214847] | -69.3% |  |
| CN1CCN2c3ccccc3Cc3ccccc3C2C1 (stereo not drawn) [PCM-0065420] | 12.4% |  |
| Cc1ccc(C=NNC(=O)c2ccccc2Oc2ccccc2)o1 [PCM-0215777] | -16.2% |  |
| CCCc1cc(C)[nH]c(=O)c1CNC(=O)c1cc(-c2ccc(N3CCN(C(C)C)CC3)nc2)cc2c1cnn2C(C)C [PCM-0095761] | -29.3% |  |
| CC(=O)O[C@H]1C[C@@]2(C)[C@@H](C[C@@H](O)[C@H]3[C@@]4(C)CC[C@@H](O)[C@@H](C)[C@@H]4CC[C@@]32C)/C1=C(\CCC=C(C)C)C(=O)O [PCM-0214838] | 6.2% |  |
| O=C1c2ccc(Nc3ccc(F)cc3F)cc2CCc2ccc(OC[C@H](O)CO)cc21 [PCM-0215248] | 13.1% |  |
| O=c1[nH]c(=O)n([C@H]2C[C@H](O)[C@@H](CO)O2)cc1C(F)(F)F [PCM-0086194] | 2.3% |  |
| O=C(/C=C/c1ccc(O)c(O)c1)c1ccc(O)cc1O [PCM-0095622] | 55.2% |  |
| Cc1sc2c(c1C)C(c1ccc(Cl)cc1)=N[C@@H](CC(=O)OC(C)(C)C)c1nnc(C)n1-2 [PCM-0095747] |  | 10.8% |
| C[C@]12CC[C@H]3[C@@H](CC=C4CC(O)CC[C@@]43C)[C@@H]1CC[C@@H]2C(O)CC(O)(C(F)(F)F)C(F)(F)F (stereo partly drawn) [PCM-0215756] | 11.6% |  |
| Cc1ccc(N(CC2=NCCN2)c2cccc(O)c2)cc1 [PCM-0065435] | -8.6% |  |
| Cc1nc(C(=O)NCC(=O)O)c(O)c2ccc(Oc3ccccc3)cc12 [PCM-0094891] | -5.4% |  |
| C=CCSC[C@H](N)C(=O)O [PCM-0215956] | 3.4% |  |
| O=S(=O)(O)Oc1ccc(C(c2ccc(OS(=O)(=O)O)cc2)c2ccccn2)cc1 [PCM-0095575] | -12.5% |  |
| COc1ccc(-c2cc(=O)c3c(O)cc(O[C@@H]4O[C@H](CO[C@@H]5O[C@@H](C)[C@H](O)[C@@H](O)[C@H]5O)[C@@H](O)[C@H](O)[C@H]4O)cc3o2)cc1O [PCM-0087491] | -5.1% |  |
| OC(CN1CCN(c2cccc(Cl)c2)CC1)C(c1ccccc1)c1ccccc1 (stereo not drawn) [PCM-0095352] | 37.4% |  |
| CC(C)=CCC[C@](C)(O)[C@H]1CC[C@]2(C)[C@@H]1[C@H](O)C[C@@H]1[C@@]3(C)CC[C@H](O)C(C)(C)[C@@H]3[C@@H](O[C@@H]3O[C@H](CO)[C@@H](O)[C@H](O)[C@H]3O)C[C@]12C [PCM-0216412] | -10.8% |  |
| C[C@H]1CC[C@@]2(OC1)O[C@H]1C[C@H]3[C@@H]4CC[C@@H]5C[C@@H](O[C@@H]6O[C@H](CO)[C@H](O)[C@H](O)[C@H]6O[C@@H]6O[C@H](CO)[C@@H](O)[C@H](O)[C@H]6O)CC[C@]5(C)[C@H]4CC[C@]3(C)[C@H]1[C@@H]2C [PCM-0216400] | 1.5% |  |
| Cc1cc(O)c(-c2ccc([C@@H](C)CN)cc2)c2c1[nH]c(=O)c1sccc12 [PCM-0215772] | 70.3% |  |
| CC(C)C[C@H](NP(=O)(O)O[C@@H]1O[C@@H](C)[C@H](O)[C@@H](O)[C@H]1O)C(=O)N[C@@H](Cc1c[nH]c2ccccc12)C(=O)O [PCM-0215347] | 14.7% |  |

| Structure (SMILES) | inhibition at 10 µM [1] | inhibition at 10 µM (read-out: BTK inhibition (%)) |
| --- | --- | --- |
| CC(=O)O[C@H]1CC/C(C)=C/CC/C(C)=C/C[C@]2(C(C)C)CC[C@@]1(C)O2 [PCM-0216348] | -10% |  |
| CC(C)(O)CNc1ncc(-c2ccnc(Nc3ccnc(Cl)c3)n2)c(CC2CC2)n1 [PCM-0215614] | -14.5% |  |
| CC(C)CCn1c(CN2CCN(C(=O)C3CC3)CC2)nc2c1c(=O)n(C)c(=O)n2C [PCM-0215566] | -13.9% |  |
| NCc1ccc(S(N)(=O)=O)cc1 [PCM-0085773] | -28.8% |  |
| CN(C)Cc1cccc(N=C(c2ccccc2)c2c(O)[nH]c3cc(C(=O)N(C)C)ccc23)c1 [PCM-0095091] | 1.4% |  |
| CN1c2ccccc2C(NCCCCCCC(=O)O)c2ccc(Cl)cc2S1(=O)=O (stereo not drawn) [PCM-0095097] |  | -13.2% |
| NCCCC(O)(P(=O)(O)O)P(=O)(O)O [PCM-0215186] | 0.9% |  |
| O=C1C[C@@H](c2ccc(O[C@@H]3O[C@H](CO)[C@@H](O)[C@H](O)[C@H]3O)cc2)Oc2cc(O)ccc21 [PCM-0214980] | 10.9% |  |
| COC(=O)Nc1nc2ccc(Sc3ccccc3)cc2[nH]1 [PCM-0085863] | -7% |  |
| OC[C@H]1O[C@H](OC[C@H]2O[C@H](OC[C@H]3O[C@H](O[C@]4(CO)O[C@H](CO)[C@@H](O)[C@@H]4O)[C@H](O)[C@@H](O)[C@@H]3O)[C@H](O)[C@@H](O)[C@H]2O)[C@H](O)[C@@H](O)[C@H]1O [PCM-0216230] | 17.8% |  |
| C[N+](C)(C)CCOP(=O)([O-])OP(=O)(O)OC[C@H]1O[C@@H](n2ccc(N)nc2=O)[C@H](O)[C@@H]1O [PCM-0215877] | 0.9% |  |
| CCCCOC(=O)c1ccccc1Nc1cccc(C(F)(F)F)c1 [PCM-0216094] | 21.4% |  |
| CCS(=O)(=O)Nc1ccc2[nH]c(O)c(C(=Nc3ccc(CN4CCCCC4)cc3)c3ccccc3)c2c1 [PCM-0095089] | 82.1% |  |
| Oc1ccc(OCc2ccccc2)cc1 [PCM-0086466] | 8.6% |  |
| CC(=O)NC[C@H]1CN(c2ccc(N3CCOCC3)c(F)c2)C(=O)O1 [PCM-0064450] | -23.3% |  |
| O=C(O)c1cc(C(F)(F)F)ccc1N1CC[C@H](OCc2ccccn2)C1 [PCM-0215430] | 8.5% |  |
| C=C1C[C@@]23CC[C@H]4[C@@](C)(CCC[C@@]4(C)C(=O)O)[C@@H]2CC[C@]1(O[C@@H]1O[C@H](CO)[C@@H](O)[C@H](O)[C@H]1O[C@@H]1O[C@H](CO)[C@@H](O)[C@H](O)[C@H]1O)C3 [PCM-0216480] | -3.9% |  |
| CN1CCCCC1Cn1cc(C(=O)c2cc([N+](=O)[O-])ccc2I)c2ccccc21 (stereo not drawn) [PCM-0095105] |  | 22.6% |
| CNCC[C@@H](Oc1ccccc1C)c1ccccc1 [PCM-0086150] | 11.7% |  |
| NC(=O)[C@@H]1CCCN1C(=O)[C@H](Cc1cnc[nH]1)NC(=O)[C@@H]1CCC(=O)N1 [PCM-0214836] | -5.4% |  |
| C=CC(=O)N[C@H]1CCOC[C@H]1Nc1ncc2cc(-c3c(Cl)c(OC)cc(OC)c3Cl)ccc2n1 [PCM-0215807] | 22.1% |  |
| Cc1c(CN2CCC(Nc3ncnc4sc(CC(F)(F)F)cc34)CC2)ccc2[nH]c(C#N)cc12 [PCM-0215775] | 32.4% |  |
| COC(=O)[C@H](CCSC)NC(=O)c1ccc(NC[C@@H](N)CS)cc1-c1ccccc1 [PCM-0215424] | -57.9% |  |
| N#CCC1(n2cc(-c3ncnc4[nH]ccc34)cn2)CN(C2CCN(C(=O)c3ccnc(C(F)(F)F)c3F)CC2)C1 [PCM-0216009] | 12.4% |  |
